From US20240327351A1, “AMIDE AND ETHER SUBSTITUTED N-(1H-INDOL-7-YL)BENZENESULFONAMIDES AND USES THEREOF” (TRIANA BIOMEDICINES, INC., priority 2021, published 2024) come the findings set out here.

In one assay the target is T1, RBM39 (Homo sapiens, UniProt Q14498+Q66K64).
T1 construct: endogenous in cells; host or cells: HCT116
Nature of the assay: Western blot assay for degradation of RBM39 in HCT116 cells. The assay is classed as cell-based. Particulars: HCT-116, numeric values. How it is done:
HCT116 cells were used with passage numbers ranging from 13 to 25. Cells were seeded in 12-well plated at a density of 1 million cells per well in 1 mL cell culture medium containing McCoy's 5A medium (Cat. #16600082, ThermoFisher, Waltham, MA), 10% Fetal Bovine Serum (Cat. #26140, ThermoFisher, Waltham, MA) and 1% Pen-Strep (Cat. #. 15070063, ThermoFisher, Waltham, MA) and incubated overnight. The next morning, compounds were serially diluted (1:3, 9 points) in the medium separately and were prepared 2× the final assay concentration. Subsequently, 1.0 mL medium containing DMSO or the appropriate concentration of each compound was added to respective wells. The final DMSO concentration in each well was 0.1%. After 24 hour incubation with compounds, cell were harvested (approximately 90-100% confluency at the time of harvest). […] Lysates were then sonicated in a sonication bath (3 pulses of 10 sec each with 1 min incubation on ice between each pulse). Samples were then centrifuged for 20 min at 14,000 rpm for 20 min. Supernatants were then transferred to fresh microfuge tubes and stored frozen at −80° C. until use. Total protein quantitation in lysate samples was done using the BCA protein quantitation kit following the manufacturer's instructions. For polyacrylamide gel electrophoresis, each sample (15-30 […]), was diluted with Laemmli sample buffer (Cat. #. 1610747, BioRad, Hercules, CA) by adding 9 ul of lysate to 3 ul of sample buffer containing 10% β-mercaptoethanol. Samples were then denatured at 95° C. for 5 minutes in a heat block, centrifuged at 14,000 rpm for 5 min, and placed on ice. Subsequently, 12 ul of each sample was loaded on 4-20% Tris/Glycine gels and electrophoresed in 1×Tris/Glycine SDS buffer at 80 (constant) volts for 2 h. Resolved samples were then transferred from gels to PVDF membrane using the BioRad Turbo-transfer unit with the Turbo default program (Cat. #. 1704150EDU, BioRad, Hercules, CA). For immunoblotting, membranes were first blocked for 1 hour at room temperature using Odyssey Blocking Buffer (Cat. #: 927-60001, Li-cor, Lincoln, NE) with continuous rocking. Membrane was then incubated with primary antibodies, anti-RBM39 (Sigma Cat. #: HPA001591, St. Louis, MO) and anti-β-actin (Cell Signaling Cat. #3700S, Danvers, MA), diluted 1000 fold each, at 4° C. for overnight. […] Band intensity in images was quantified using the Image Studio Lite software (Version 5.2). Signal intensity for RBM-39 specific bands were normalized using the signal intensity for β-actin-specific band, and percent degradation was assessed by comparing RBM39 signal in compound-treated vs. DMSO-treated samples.
A general note: A western blot detects proteins with antibodies after separation by electrophoresis.

The target of the next assay is DCAF15 (Homo sapiens, UniProt Q66K64). Nature of the assay: HTRF competition assay, binary interaction between compounds and DCAF15. Particulars: competition with Alexa Fluor 647 tracer, His-tagged DCAF15 complex. Format: binding. The procedure, abridged: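 Compounds, 3-fold serially diluted in DMSO, competed with an Alexa Fluor 647 tracer (612 nM, 2.04× stock) for His-tagged DCAF15 complex (32 nM, 4× stock) premixed 15 min with anti-6His-Eu cryptate. Buffer was 25 mM HEPES pH 7.5, 100 mM NaCl, 0.5 mM TCEP. After 1 h at RT, the 615/666 nm ratio gave titration curves.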
(TR-FRET usually uses a lanthanide donor and a delayed reading to cut background.)

Another assay addresses DCAF15/RBM39 (Homo sapiens, UniProt Q14498+Q66K64). Nature of the assay: AlphaLISA compound-induced DCAF15-RBM39 ternary complex formation. The assay is classed as binding. Conditions: His-tagged DCAF15 complex and biotin-carrying RBM39. The gist of the method: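 Compounds, serially diluted 3-fold from 2 mM DMSO stocks, were incubated 1 h at room temperature with His-tagged DCAF15 complex and biotinylated RBM39 (mixture at 408 nM each, 2.04×). The buffer was 50 mM HEPES pH 7.5, 100 mM NaCl, 2 mM MgCl2, 2 mM TCEP. Ni-chelate acceptor and streptavidin donor beads were added sequentially (1–2 h each), and the AlphaLISA signal was titrated.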
(In Alpha technology, singlet oxygen from a donor bead excites a nearby acceptor bead.)

The term Dmax denotes the largest share of the target that was removed. Low values mean a partial loss of target, high ones a fuller loss of target. One may read the IC50 as the concentration that inhibits the measured activity by half. Read a high IC50 as a need for much substance. Broadly, the EC50 is the concentration at which the effect is half-maximal. A high value points to lower potency in that assay.

T1 sequence (Q66K64 whole entry): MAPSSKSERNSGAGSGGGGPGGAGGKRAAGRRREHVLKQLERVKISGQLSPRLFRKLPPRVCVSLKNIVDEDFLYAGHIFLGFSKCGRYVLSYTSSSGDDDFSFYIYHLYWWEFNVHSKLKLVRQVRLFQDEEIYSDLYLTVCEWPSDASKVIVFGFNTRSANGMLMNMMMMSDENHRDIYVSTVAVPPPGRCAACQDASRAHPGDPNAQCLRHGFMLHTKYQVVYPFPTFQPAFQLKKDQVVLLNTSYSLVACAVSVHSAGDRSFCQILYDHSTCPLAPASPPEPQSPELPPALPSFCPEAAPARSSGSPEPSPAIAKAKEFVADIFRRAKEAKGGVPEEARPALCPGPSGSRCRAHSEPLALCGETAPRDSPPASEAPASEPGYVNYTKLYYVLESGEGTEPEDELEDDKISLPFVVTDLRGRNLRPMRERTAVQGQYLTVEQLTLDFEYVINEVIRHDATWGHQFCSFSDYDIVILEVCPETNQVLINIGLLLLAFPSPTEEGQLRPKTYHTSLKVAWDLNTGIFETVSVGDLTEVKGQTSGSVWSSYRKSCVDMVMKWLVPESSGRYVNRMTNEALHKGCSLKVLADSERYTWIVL
T1 sequence (Q14498 2-530): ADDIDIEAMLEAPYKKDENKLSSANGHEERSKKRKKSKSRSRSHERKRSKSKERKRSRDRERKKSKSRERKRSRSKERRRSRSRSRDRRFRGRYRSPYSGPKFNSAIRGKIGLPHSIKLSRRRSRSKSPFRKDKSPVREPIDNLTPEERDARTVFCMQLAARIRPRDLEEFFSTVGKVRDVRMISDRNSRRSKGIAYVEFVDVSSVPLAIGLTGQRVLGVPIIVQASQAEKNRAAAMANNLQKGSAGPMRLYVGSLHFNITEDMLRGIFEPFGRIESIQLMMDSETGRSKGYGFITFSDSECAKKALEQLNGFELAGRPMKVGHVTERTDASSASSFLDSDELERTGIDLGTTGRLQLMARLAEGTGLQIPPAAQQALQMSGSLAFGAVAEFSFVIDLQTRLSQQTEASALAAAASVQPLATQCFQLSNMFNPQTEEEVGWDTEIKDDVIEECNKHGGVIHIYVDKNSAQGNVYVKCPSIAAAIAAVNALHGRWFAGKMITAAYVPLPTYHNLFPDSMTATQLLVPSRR
T1 sequence (Q16531 whole entry, further chain): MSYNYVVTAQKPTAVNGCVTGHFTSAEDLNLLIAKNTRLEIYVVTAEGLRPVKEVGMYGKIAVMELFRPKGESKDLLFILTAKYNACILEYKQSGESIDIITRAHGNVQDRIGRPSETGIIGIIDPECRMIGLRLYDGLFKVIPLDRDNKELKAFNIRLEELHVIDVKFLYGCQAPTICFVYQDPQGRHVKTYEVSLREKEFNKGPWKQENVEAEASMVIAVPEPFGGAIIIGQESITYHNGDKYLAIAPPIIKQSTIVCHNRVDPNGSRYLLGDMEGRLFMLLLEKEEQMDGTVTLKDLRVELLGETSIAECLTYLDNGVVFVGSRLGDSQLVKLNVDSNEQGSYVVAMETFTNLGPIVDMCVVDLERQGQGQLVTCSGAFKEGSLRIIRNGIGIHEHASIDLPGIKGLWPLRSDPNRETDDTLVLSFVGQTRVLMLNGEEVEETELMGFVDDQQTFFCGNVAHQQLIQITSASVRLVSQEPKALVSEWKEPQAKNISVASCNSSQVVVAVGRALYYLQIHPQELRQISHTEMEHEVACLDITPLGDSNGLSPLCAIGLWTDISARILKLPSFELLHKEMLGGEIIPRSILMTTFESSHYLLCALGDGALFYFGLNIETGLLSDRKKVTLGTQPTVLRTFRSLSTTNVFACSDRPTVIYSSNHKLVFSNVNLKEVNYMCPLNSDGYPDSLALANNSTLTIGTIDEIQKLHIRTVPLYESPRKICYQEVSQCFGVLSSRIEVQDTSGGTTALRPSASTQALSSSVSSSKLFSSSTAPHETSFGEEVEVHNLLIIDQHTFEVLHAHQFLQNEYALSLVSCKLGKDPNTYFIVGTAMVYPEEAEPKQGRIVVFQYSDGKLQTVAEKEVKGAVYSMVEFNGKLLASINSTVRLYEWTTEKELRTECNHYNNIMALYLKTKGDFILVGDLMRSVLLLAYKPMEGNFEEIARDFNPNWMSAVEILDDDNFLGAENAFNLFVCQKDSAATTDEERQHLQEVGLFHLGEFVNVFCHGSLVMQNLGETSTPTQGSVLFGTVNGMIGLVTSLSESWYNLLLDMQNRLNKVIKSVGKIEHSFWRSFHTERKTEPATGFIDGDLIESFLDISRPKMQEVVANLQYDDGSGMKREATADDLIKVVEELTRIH

In the case of `O=C(c1cccc(S(=O)(=O)Nc2ccc(Cl)c3c(Cl)c[nH]c23)c1)N1CCOCC1` [Compound 218], the Dmax at RBM39 is 100%. This compound also displayed an IC50 at DCAF15 of 1 to 10 µM. The EC50 on DCAF15/RBM39 is under 1000 nM.

As for `O=C(NC1CC1)c1ccc(S(=O)(=O)Nc2ccc(Cl)c3c(Cl)c[nH]c23)cc1` [Compound 153], the Dmax at RBM39 stood at 94.8%. The compound further registered an IC50 on DCAF15 of 1 to 10 µM. On DCAF15/RBM39, the EC50 was under 1000 nM.

`O=C(COc1ccc(S(=O)(=O)Nc2ccc(Cl)c3c(Cl)c[nH]c23)cc1)NC1CC1` [Compound 39] returned a Dmax at RBM39 of 97.6%. At DCAF15, the half-inhibitory concentration (IC50) was over 100 µM. The compound further had an EC50 at DCAF15/RBM39 of under 1000 nM.

At DCAF15, `CN1CC[C@@H](c2ccc(F)cc2)[C@H](COc2cccc(S(=O)(=O)Nc3ccc(Cl)c4c(Cl)c[nH]c34)c2)C1` [Compound 41] had an IC50 of 1 to 10 µM. Moreover, the concentration giving a half-maximal response (EC50) at DCAF15/RBM39 was under 1000 nM.

As to `O=S(=O)(Nc1ccc(Cl)c2c(Cl)c[nH]c12)c1ccc(OC(F)F)c(F)c1` [Compound 38], the IC50 at DCAF15 lay within 1 to 10 µM. The concentration giving a half-maximal response (EC50) at DCAF15/RBM39 was under 1000 nM.

As for `Cc1ccc(CCNC(=O)c2ccc(S(=O)(=O)Nc3ccc(Cl)c4c(Cl)c[nH]c34)c(F)c2)o1` [Compound 199], the half-maximal inhibitory concentration (IC50) on DCAF15 fell in the range of 1 to 10 µM. For the same compound, at DCAF15/RBM39, the EC50 lay in the range of 1000 to 10000 nM.

The compound `Cn1cc(CCOc2ccc(S(=O)(=O)Nc3ccc(Cl)c4c(Cl)c[nH]c34)cc2)c2ccccc21` [Compound 93] showed an IC50 on DCAF15 of over 100 µM. The same compound had an EC50 at DCAF15/RBM39 of over 100000 nM.

`CN1CC[C@@H](c2ccc(F)cc2)[C@H](COc2ccc(S(=O)(=O)Nc3ccc(Cl)c4c(Cl)c[nH]c34)cc2)C1` [Compound 42]: the IC50 on DCAF15 was 1 to 10 µM. For the same compound, at DCAF15/RBM39, the EC50 fell in the range of 1000 to 10000 nM.

Take `CC(C)CNC(=O)c1ccc(S(=O)(=O)Nc2ccc(Cl)c3c(Cl)c[nH]c23)c(F)c1` [Compound 240]: the half-inhibitory concentration (IC50) at DCAF15 lay in the range of 1 to 10 µM. Also, the EC50 at DCAF15/RBM39 is under 1000 nM.

On DCAF15, `CC(C)C(=O)Nc1cccc(CNC(=O)c2ccc(S(=O)(=O)Nc3ccc(Cl)c4c(Cl)c[nH]c34)c(F)c2)c1` [Compound 169] came in with an IC50 of 1 to 10 µM. Moreover, the EC50 on DCAF15/RBM39 lay within 1000 to 10000 nM.

On to `Cc1cc(CNC(=O)c2cccc(S(=O)(=O)Nc3ccc(Cl)c4c(Cl)c[nH]c34)c2F)nn1C` [Compound 174], for which, at DCAF15, the IC50 fell in the range of 1 to 10 µM. On DCAF15/RBM39, this compound came in with an EC50 of under 1000 nM.

On DCAF15, `CC(C)C(=O)Nc1cccc(CNC(=O)c2cccc(S(=O)(=O)Nc3ccc(Cl)c4c(Cl)c[nH]c34)c2F)c1` [Compound 168] returned an IC50 of 1 to 10 µM. Also, the EC50 at DCAF15/RBM39 was 1000 to 10000 nM.

For the compound `NCCc1ccc(COc2ccc(S(=O)(=O)Nc3ccc(Cl)c4c(Cl)c[nH]c34)cc2)cc1` [Compound 60], on DCAF15, the IC50 lay within 1 to 10 µM. In addition, on DCAF15/RBM39, the EC50 lay within 1000 to 10000 nM.

In turn, `CN1CCN(C(=O)c2ccc(S(=O)(=O)Nc3ccc(Cl)c4c(Cl)c[nH]c34)cc2)CC1` [Compound 223] yielded a concentration for half-maximal inhibition (IC50) on DCAF15 of 1 to 10 µM. Further, the EC50 on DCAF15/RBM39 was under 1000 nM.

Compound `CC(C)(C)OC(=O)N1CCC2(CC1)CN(C(=O)c1cccc(S(=O)(=O)Nc3ccc(Cl)c4c(Cl)c[nH]c34)c1F)CCO2` [Compound 224] yielded a 50% inhibitory concentration (IC50) at DCAF15 of 1 to 10 µM. The compound also registered an EC50 at DCAF15/RBM39 of under 1000 nM.

`O=S(=O)(Nc1ccc(Cl)c2c(Cl)c[nH]c12)c1ccc(OCCCc2ccc3c(c2)OCO3)cc1` [Compound 110] returned an IC50 at DCAF15 of over 100 µM. At DCAF15/RBM39, this compound yielded an EC50 of over 100000 nM.

Regarding `CN(C)C(=O)C[C@H](NC(=O)c1cccc(S(=O)(=O)Nc2ccc(Cl)c3c(Cl)c[nH]c23)c1F)c1ccccc1` [Compound 196], on DCAF15, the IC50 is 1 to 10 µM. Also, the EC50 on DCAF15/RBM39 is 1000 to 10000 nM.

As to `CCS(=O)(=O)CCNC(=O)c1cccc(S(=O)(=O)Nc2ccc(Cl)c3c(Cl)c[nH]c23)c1F` [Compound 190], on DCAF15, the IC50 was in the range of 1 to 10 µM. Further, at DCAF15/RBM39, the EC50 is under 1000 nM.

As for `CCS(=O)(=O)CCOc1ccc(S(=O)(=O)Nc2ccc(Cl)c3c(Cl)c[nH]c23)cc1` [Compound 71], on RBM39, the Dmax was determined as 100%. In addition, on DCAF15, the half-inhibitory concentration (IC50) fell in the range of 1 to 10 µM. The compound also gave an EC50 on DCAF15/RBM39 of 1000 to 10000 nM.

In the case of `Cc1cnc(CNC(=O)c2cccc(S(=O)(=O)Nc3ccc(Cl)c4c(Cl)c[nH]c34)c2F)cn1` [Compound 183], at DCAF15, the IC50 was 1 to 10 µM. Moreover, on DCAF15/RBM39, the EC50 is under 1000 nM.

Compound `O=S(=O)(Nc1ccc(Cl)c2c(Cl)c[nH]c12)c1cccc(OCCCc2ccc3c(c2)OCO3)c1` [Compound 111] displayed a concentration for half-maximal inhibition (IC50) on DCAF15 of over 100 µM. This compound also gave an EC50 on DCAF15/RBM39 of over 100000 nM.

At DCAF15, `O=C(NCC1CCN(CCCc2ccccc2)CC1)c1ccc(S(=O)(=O)Nc2ccc(Cl)c3c(Cl)c[nH]c23)c(F)c1` [Compound 167] displayed an IC50 of under 1 µM. The EC50 at DCAF15/RBM39 is under 1000 nM.

In turn, `CN(C)C(=O)c1cccc(S(=O)(=O)Nc2ccc(Cl)c3c(Cl)c[nH]c23)c1` [Compound 238] registered an IC50 on DCAF15 of 1 to 10 µM. Also, at DCAF15/RBM39, the EC50 was 1000 to 10000 nM.

As to `CS(=O)(=O)c1ccc(CCOc2cccc(S(=O)(=O)Nc3ccc(Cl)c4c(Cl)c[nH]c34)c2)cc1` [Compound 76], the IC50 at DCAF15 was over 100 µM. On DCAF15/RBM39, this compound showed an EC50 of 1000 to 10000 nM.

Compound `CNC(=O)c1ccc(F)c(S(=O)(=O)Nc2ccc(Cl)c3c(Cl)c[nH]c23)c1` [Compound 237] yielded an IC50 on DCAF15 of 10 to 100 µM. The 50% effective concentration (EC50) at DCAF15/RBM39 lay in the range of 1000 to 10000 nM.

`O=C(NCCCc1ccc(Cl)cc1)c1ccc(S(=O)(=O)Nc2ccc(Cl)c3c(Cl)c[nH]c23)c(F)c1` [Compound 209] displayed a half-inhibitory concentration (IC50) on DCAF15 of over 100 µM. Besides, at DCAF15/RBM39, the EC50 lay within 1000 to 10000 nM.

The compound `CC[C@H](NC(=O)c1cccc(S(=O)(=O)Nc2ccc(Cl)c3c(Cl)c[nH]c23)c1F)c1ccc2c(c1)OCCO2` [Compound 210] gave an IC50 at DCAF15 of 1 to 10 µM. At DCAF15/RBM39, the EC50 is 1000 to 10000 nM.

On to `O=S(=O)(Nc1ccc(Cl)c2c(Cl)c[nH]c12)c1cccc(O[C@H]2CC[C@H](OCc3ccccc3)CC2)c1` [Compound 18], for which the IC50 at DCAF15 is over 100 µM. The compound further came in with an EC50 at DCAF15/RBM39 of over 100000 nM.

On DCAF15, `O=S(=O)(Nc1ccc(Cl)c2c(Cl)c[nH]c12)c1cccc(OCc2cccc(OC(F)F)c2)c1` [Compound 53] showed an IC50 of over 100 µM. Moreover, the EC50 at DCAF15/RBM39 was 1000 to 10000 nM.
